Entries after “also recorded” stand apart in the source; their conditions may differ.
Legend:
Assay type in all cases: cell-based, human
OVCA cell lines [1] = assay: Flow cytometry of the cell cycle distribution of OVCA; conditions: all OVCA cell lines; 24 hours treatment; 1-100 μgm/ml; compared to control DMSO-treated cells
From the text: Effect of EM on the cell cycle of OVCA. Rationale: Since EM's antiproliferative activity could be due to the disruption of mitosis and other crucial microtubule-dependent cellular functions, flow cytometry was used to investigate the effect of EM on the cell cycle distribution of OVCA. Experiments: Following EM administration (1-100/ μgm/ml) the flasks were trypsinized and all cells subjected to flow cytometry in the Yale Cancer Center Core laboratory. […] Conclusions: (1) EM induced cell cycle synchronization at G2/M. This was consistent with an action on OVCA microtubule associated proteins (MAP's). (2) Synchronization in G2/M raised the possibility of radio-sensitization (Barnes WM. PCR amplification of up to 35-Kb DNA with high fidelity and high yield from lambda bacteriophage templates. Proc Natl Acad Sci USA March 15; 91 (6): 2216-20, 1994; Mandelkow E, Mandelkow E-M. Microtubules and microtubule-associated proteins. Current Opinion in Cell Biology 7:72-81, 1995.

OVCA cell lines [2] = assay: MTT assay of OVCA cell proliferation; conditions: data not shown; for cell proliferation (MTT assay): all the cell lines, same doses as the p80 experiment
Description: (§1) Rationale and Experiments: In order to assess the effects of various classes of chemotherapy on p80-containing OVCA cells and to elucidate the relationship between p80, EM, and OVCA proliferation, EM or tamoxifen or the NADPH-oxidase inhibitor diphenyleneiodonium treatment was carried out. […] The treatment was followed with Western blotting to determine the effect of each agent on p80 expression. To control for reduced cell numbers or changes in cell volume as confounding factors, results were calculated on the basis of p80 per mg protein or DNA in the cells.
To further test the relationship between p80 and OVCA proliferation, OVCA cells were treated with EGF and measured proliferation (MTT assay) and the expression of p80 (Western Blotting). Again, results were calculated on a per mg protein or DNA basis to avoid confounding. […] (2) E-M/ECC's and their roles as specific antimicrotubular agents will be tested.

p80 [3] = assay: Western analysis of p80 expression in drug-treated SKOV3 cells; conditions: for expression of p80 (Western blotting): OVCA cells, calculated as p80 per mg protein or DNA; for expression of p80 (Western analysis): SKOV3, 24-hour treatment, compared to control DMSO-treated cells
Description: FIG. 9. […] Rat brain extract was used as a positive control (lane e). MW=Molecular weight markers (High Range SDS-PAGE standard). Actin was detected as loading control.
Western Blot Analysis: The cell monolayer was lysed with lysis buffer containing six protease inhibitors (Protease Cocktail; Roche), incubated on ice for 10 min, and scraped with a rubber policeman. Cell lysate was collected and centrifuged at 12,000× g for 30 min. Supernatants were saved for SDS-PAGE and Western blot analysis, and pellets were extracted by SDS-PAGE sample buffer (minus reducing reagent). The total amount of protein in each extract was determined by the bicinchoninic acid (BCA) method. SDS-PAGE was performed, loading the same amount of total protein in the same volume into each sample well, using commercially available precast 4-15% gradient SDS-polyacrylamide gels (Bio Rad). High range SDS-PAGE standard (Bio Rad) was run as a standard. After electrophoresis, proteins were transferred onto a PVDF membrane. After transfer, the membrane was incubated with primary antibody, then washed, and incubated with peroxidase-labeled second antibody. Signals were visualized on Hyperfilm-ECL by the ECL-reagents (Amersham).
SDS-PAGE and Western Blot Analysis: The cell monolayer was lysed with lysis buffer containing 6 protease inhibitors (Boehringer-Mannheim). Cell lysate was collected by centrifugation after the supernatants were saved. The pellet was extracted by boiling with SDS-containing buffer. The total amount of protein in each extract was determined. SDS-PAGE was performed by loading the same amount of total protein into each sample well. After electrophoresis, proteins were electro-transferred onto a PVDF membrane. Then, the membrane was incubated with primary antibody, washed, and incubated with peroxidase conjugated horse anti-mouse IgG (H+L). Signals were developed with an enhanced luminescence reagent (ECL, Amersham) and visualized on Hyper ECL-Film. (Amersham). Signal density was measured and analyzed by a densitometer. Western analysis can furnish information on immunoreactivity and molecular size; therefore, this technique was often used for the first-line screening of the presence of p80. However, if there was any ambiguity about the cross-reactivity, the results were double checked with Northern blotting or RT-PCR with specific primers.
as §1

OVCA cell lines [4] = assay: 3H-thymidine uptake in cultured OVCA cells; conditions: all OVCA cell lines; 1-100 μg/ml
From the text: Culture of OVCA cell lines and cell cultures. Rationale: In order to determine the efficacy of inhibiting human OVCA cells with drugs, four extensively characterized OVCA cell lines, three in-house lines, DK2NMA, BIXLER, BIX3 (all courtesy of Drs. S. Chambers and B. Kacinski), (Peter B. Kaufman, William, Wu, Donghern Kim, Leland J. Cseke. Molecular Biology and Medicine. CRC Press inc., Boca Raton, Florida Chapter 12:289-304, 1995) and SKOV3, obtained from American Type Culture Collection, were established in mono-layer culture. Experiments: In preparation for drug treatment, cell suspensions were thor-oughly dispersed, precisely counted and then seeded into another flask at the desired cell den-sity. Conclusion: The cell lines were established, and test drugs shown to predictably affect the cells. Results were produced that meet stringent reliability criteria, including precision i.e., small variability between replicates.
Inhibition of OVCA cell proliferation by EM (estrogen mustard). Rationale: Clini-cally, EM has modest systemic toxicity and has been partially effective in the treatment of advanced prostatic carcinoma. […] Therefore, the effect of EM on OVCA cells was studied. Experiments: 3H-thymidine uptake was used to test the effect of EM against cultured OVCA cells in a wide range of concentrations (1-100 μg/ml). […]

p80 [5] = assay: Immunofluorescence staining of p80 in PMA-treated THP-1 cells; conditions: 10 ng/ml, 5 days
Description: (§2) FIG. 11. (Top): Light microscopy of THP-1 cells after treatment of PMA. A. untreated THP-1 cells; B. THP-1 cells treated with 10 ng for five days. (Middle): Western blotting analysis of p80 in PMA-treated THP-1 cells. M: protein markers, Lane 1. SKOV3 (OVCA) as p80 positive control, Lane 2. Untreated THP-1 cells, supernatant from the cell lysate. Lane 3. Untreated THP-1 cell, pellet from the cell lysate. Lane 4. 5 day-PMA (10 ng/ml) treated THP-1 cells, supernatant from the cell lysate. Lane 5:5 day-PMA (10ng/ml) treated THP-1 cells, pellet from the cell lysate. Lane 6: human brain protein extract as 350 kDa MAP1a control. Lanes 7-12 are duplications of Lane 1-7. Note: Before PMA treatment there is a thick 80 kDa band in Lane 2; after 5 days of PMA treatment, the 80 kDa band became undetectable. (Bottom): IF straining of THP-1 cells after 5 days treatment with PMA. A. Untreated THP-1 cells; B. PMA (10 ng/ml) treated THP-1 cells.
(§3) Terminal Differentiation of THP-1 leukemia cells was associated with decreased expression of p80. […] The slide was studied by a fluorescence microscope for the presence of the P80 and photographed. […] Before treatment with PMA, the cells were round with bright fluorescence (FIG. 11-a Bottom); after PMA treatment, the cells grew processes with no IF of P80 (FIG. 11b Bottom). […]

p80 [6] = assay: Western blotting of p80 in PMA-treated THP-1 cells; conditions: 10 ng/ml, 5 days
Description: as §2, §3

[7] = system: THP-1 promonocytic leukemia cell line; assay: Cell morphology/differentiation of THP-1 leukemia cells after PMA; conditions: THP-1 cells; 10 ng/ml
Description: as §2, §3

p80 [8] = assay: SDS-PAGE/Western blot of p80 in BIX3 OVCA cells after EGF treatment; conditions: per mg protein or DNA basis, compared to untreated control
Description: FIG. 10. SDS-PAGE/Western blot analysis of p80 in BIX3 OVCA cells following treatment with EGF, (see text). The lanes are as follows: (a) protein standards, (b) control-untreated, (c) EGF-treated. The density of p80 expression was increased after EGF treatment. Actin was detected as loading control.
Stimulation of expression of p80 by epidermal growth factor (EGF). […] To further test the relationship between p80 and OVCA proliferation, OVCA cells were treated with EGF and measured proliferation (MTT assay) and the expression of p80 (Western Blotting). Again, results were calculated on a per mg protein or DNA basis to avoid confounding. Findings: (1) Increasing doses of EGF (10-50 ng/ml) stimulated OVCA proliferation in comparison to untreated controls (data not shown). […] (2) E-M/ECC's and their roles as specific antimicrotubular agents will be tested. Alternative approaches, such as targeting this molecule by using antisense DNA/RNA to block its expression could be helpful in elucidating whether the expression of this protein is a cause or an effect of OVCA proliferation. Furthermore, the antisense approach may also lead to the development of a novel modality for OVCA therapy targeting p80.

C[C@]12CC[C@@H]3c4ccc(OC(=O)N(CCCl)CCCl)cc4CC[C@H]3[C@@H]1CC[C@@H]2O [EM, estrogen mustard]
percentages of cells in G2/M phase (OVCA cell lines [1]): significant increase
cell proliferation (MTT assay) (OVCA cell lines [2]): significantly decreased
expression of p80 (Western blotting) (p80 [3]): significantly inhibited
expression of p80 (Western analysis) (p80 [3]; 10 μM): significant decreases
3H-thymidine incorporation (OVCA cell lines [4]): marked, dose-dependent inhibition

CC/C(=C(\c1ccccc1)c1ccc(OCCN(C)C)cc1)c1ccccc1 [TMX, tamoxifen]
cell proliferation (MTT assay) (OVCA cell lines [2]): significantly decreased
expression of p80 (Western blotting) (p80 [3]): significantly inhibited
expression of p80 (Western analysis) (p80 [3]; 100 μM): significant decreases

c1ccc2c(c1)[I+]c1ccccc1-2 [DPI, diphenyleneiodonium]
cell proliferation (MTT assay) (OVCA cell lines [2]): significantly decreased
expression of p80 (Western blotting) (p80 [3]): significantly inhibited
expression of p80 (Western analysis) (p80 [3]; 10 μM): significant decreases

CCCCCCCCCCCCCC(=O)O[C@@H]1[C@@H](C)[C@@]2(O)[C@@H](C=C(CO)C[C@]3(O)C(=O)C(C)=C[C@@H]23)[C@@H]2C(C)(C)[C@]12OC(C)=O [PMA, phorbol myristic acetate]
immunofluorescence (IF) of p80 (p80 [5]): no IF of P80
p80 (80 kDa band) on Western blots (p80 [6]): disappeared; also recorded: undetectable
differentiation / cell morphology [7]: began to differentiate to monocytes/macrophages

epidermal growth factor (NSDSECPLSHDGYCLHDGVCMYIEALDKYACNCVVGYIGERCQYRDLKWWELR; Epidermal growth factor; UniProt P01133 971-1023, looked up) [EGF, growth factor; ovarian cancer cells have EGF receptors]
OVCA proliferation (MTT assay) (OVCA cell lines [2]; 10-50 ng/ml, increasing doses, compared to untreated controls): stimulated
expression of p80 (Western blotting) (p80 [8]): increased significantly

Source: patent US20240361324A1, “POINT OF SERVICE METHOD OF DETECTING, DIAGNOSING AND FOLLOWING CANCER AND OTHER PROLIFERATIVE CONDITIONS” (priority 2021, published 2024)
